Patent US11059808B2, “Substituted phenylpyrrolecarboxamides with therapeutic activity in HIV” (New York Blood Center, Inc., priority 2014, dated 2021)
Where two headings read alike, the source gives them in different places.

Columns and labels:
[1] = system: panel of HIV-1 ENV-pseudoviruses (subtype A, A/D, A2/D, A/E, A/G, B, C and D); experiment: microbe, parasite or virus in culture; assay type: cell-based
HIV-1 Integrase = target: T1, HIV-1 Integrase (Human immunodeficiency virus type 1 group M subtype B, UniProt P04585); experiment: HIV-1 Integrase Assay (ExpressBio kit); assay type: biochemical
T1 construct: HIV-1 Integrase Assay Kit from ExpressBio; purchased ExpressBio (Thurnmont, Md.)
Procedure: HIV-1 Integrase was performed as per the protocol in the HIV-1 Integrase Assay Kit from ExpressBio (Thurnmont, Md.). (See Table 3)

TZM-bl cells = experiment: Cytotoxicity in TZM-bl cells (XTT); assay type: cell-based; conditions: for CC50: XTT, 3 days
Procedure: (§1) The cytotoxicity of test compounds in TZM-bl cells was also measured by the XTT method described previously^7. […] The soluble intracellular formazan was quantitated colorimetrically at 450 nm 4 h later. The percent of cytotoxicity and the CC50 values were calculated as above. (See Table 4)

[2] = Cytotoxicity in TZM-bl cells (XTT); assay type: cell-based; conditions: human, XTT, 3 days
Procedure: as §1

[3] = system: HIV-1 pseudovirus pseudotyped with HXB2 Env; experiment: microbe, parasite or virus in culture; assay type: cell-based; conditions: single cycle assay, TZM-bl cells infected with HIV-1 pseudovirus pseudotyped with HXB2 Env;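 note: endpoint is IC50 for inhibition of pseudovirus infection of TZM-bl cells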
[4] = system: cell-to-cell fusion mediated by HIV-1 (HIV-1HXB2 Env); assay type: cell-based; conditions: Cell-Cell fusion Assay
Procedure: To assess the ability of NBD-compounds to block cell-to-cell fusion mediated by HIV-1 we performed cell fusion assay as previously described 3^1-3 with some modifications. […] Following fusion of the two cell lines Tat induce the expression of β-gal enzyme. […] The percent inhibition and the IC50 values were calculated using the GraphPad Prism software.

[5] = system: lab-adapted and primary HIV-1 isolates; experiment: Multi-cycle infection assay in PBMC (p24 ELISA)
Procedure: PBMCs were isolated from the blood of healthy donors at the New York Blood Center by standard density gradient centrifugation using Histopaque-1077 (Sigma-Aldrich). The cells were cultured at 37° C. for 2 hr. […] The PHA-stimulated cells (5×10^4 cells/well) were infected with lab-adapted and primary HIV-1 isolates at 500 TCID50 (0.01 MOI) in the absence or presence of inhibitors at graded concentrations. Culture media were replaced every 3 days with fresh media. The supernatants were collected 7 days post-infection and tested for p24 antigen by ELISA. The percent inhibition of p24 production and IC50 values were calculated by the GraphPad Prism software.

MT-2 cells = experiment: Cytotoxicity in MT-2 cells (XTT); assay type: cell-based; conditions: 4 days
Procedure: Cytotoxicity of test compounds in MT-2 cells was measured a by colorimetric method using XTT [(sodium 3′-(1-(phenylamino)-carbonyl)-3,4-tetrazolium-bis(4-methoxy-6-nitro) bezenesulfonic acid hydrate)] (PolySciences) as previously described^7. Briefly, 100 μl of a test compound at graded concentrations was added to an equal volume of cells (1×10^5 cells/ml) in 96 well plates followed by incubation at 37° C. for 4 days, which ran parallel to the neutralization assay in MT-2. Following the addition of XTT the soluble intracellular formazan was quantitated colorimetrically at 450 nm 4 h later. […] (See Table 4)

[6] = system: laboratory-adapted HIV-1 strains; experiment: Multi-cycle infection assay in MT-2 cells (p24 ELISA); conditions: read-out: IC50 (μm)
PBMC = experiment: Cytotoxicity in PBMC (XTT); assay type: cell-based; conditions: 7 days
Procedure: For the PBMC toxicity assay we used 5×10^5 cells/ml and the cytotoxicity of the compounds was measured after 7 days of incubation as previously reported^8. Following the addition of XTT the soluble intracellular formazan was quantitated colorimetrically at 450 nm 4 h later. The percent of cytotoxicity and the CC50 values were calculated as above. (See Table 4)

[7] = Human immunodeficiency virus 1, TZM-bl, read-out: IC50 (μM) ± S.D., subtype A2/D, NIH # 11905, ENV QG393.60M.ENV.A1
[8] = Human immunodeficiency virus 1, HXB2, TZM-bl
[9] = read-out: IC50 (μm), laboratory strain BaL, subtype B, co-receptor R5
[10] = read-out: IC50 (μm), laboratory strain SF162, subtype B, co-receptor R5
[11] = read-out: IC50 (μm), primary isolate 92US657, subtype B, co-receptor R5
[12] = read-out: IC50 (μm), primary isolate 93MW959, subtype C, co-receptor R5
[13] = read-out: IC50 (μm), primary isolate RU570, subtype G, co-receptor R5
[14] = RT-resistant isolate AZT-R, subtype B, MT-2, co-receptor X4
[15] = fusion resistant isolate pNL4-3 gp41(36G) V38E, N42S, subtype B, MT-2, co-receptor X4
[16] = laboratory strain MN, subtype B, MT-2, co-receptor X4
[17] = laboratory strain SF2, subtype B, MT-2, co-receptor R5X4
[18] = protease resistant isolate HIV-1RF/L-323-12-3, subtype B, MT-2, co-receptor X4

Compound: Cc1nc(C(NC(=O)c2ccc(-c3ccc(Cl)cc3)[nH]2)C2CCCCN2)sc1CO (single isomer, unassigned) [Compound 17]
- IC50 [1, 7]: 0.41 ± 0.2 µM
- IC50 (HIV-1 Integrase): > 100 µM

Compound: Cc1nc(C(CN)NC(=O)c2ccc(-c3ccc(Cl)c(F)c3)[nH]2)sc1CO (single isomer, unassigned) [Compound 41]
- CC50 (TZM-bl cells): ≥ 33 µM
- IC50 ([1]; Human immunodeficiency virus 1, TZM-bl, read-out: IC50 (μM) ± S.D., subtype C, NIH # 11312, ENV ZM249M.PL1): 1 µM
- IC50 (HIV-1 Integrase): > 100 µM

Compound: NCC(NC(=O)c1ccc(-c2ccc(Cl)c(F)c2)[nH]1)c1ncc(CO)s1 (single isomer, unassigned) [Compound 90]
- CC50 (TZM-bl cells): 37.4 ± 0.3 µM
- IC50 (HIV-1 Integrase): > 100 µM

Compound: Cc1ccc(-c2ccc(C(=O)NC(CN)c3ncc(CO)s3)[nH]2)cc1F (single isomer, unassigned) [Compound 99]
- CC50 (TZM-bl cells): 38.8 ± 0.8 µM
- IC50 ([1]; Human immunodeficiency virus 1, TZM-bl, read-out: IC50 (μM) ± S.D., subtype A, ENV KNH1144): 1.1 ± 0.2 µM
- IC50 ([1]; subtype A, ENV BG505-T332N, read-out: IC50 (μM) ± S.D.): 0.99 ± 0.1 µM

Compound: COc1cc(C(=O)NC(CN)c2nc(C)c(CO)s2)[nH]c1-c1ccc(Cl)cc1 (single isomer, unassigned) [Compound 105]
- CC50 at 3 days [2]: 16.7 ± 0.1 µM
- IC50 [3, 8]: 8.8 ± 0.5 µM

Compound: Cc1nc(C(NC(=O)c2ccc(-c3ccc(Cl)cc3)[nH]2)C(C)(C)N)sc1CO (single isomer, unassigned) [Compound 109]
- CC50 at 3 days [2]: 22.1 ± 1.8 µM
- IC50 [3, 8]: 1.4 ± 0.5 µM

Compound: Cc1nc(C(NC(=O)c2ccc(-c3ccc(Cl)c(F)c3)[nH]2)C(C)(C)N)sc1CO (single isomer, unassigned) [Compound 111]
- CC50 at 3 days [2]: 14 ± 0.4 µM
- IC50 [3, 8]: 0.44 ± 0.03 µM

Compound: Cc1ccc(-c2ccc(C(=O)NC(c3nc(C)c(CO)s3)C(C)(C)N)[nH]2)cc1F (single isomer, unassigned) [Compound 113]
- CC50 at 3 days [2]: 17.1 ± 0.6 µM
- IC50 [3]: 1.1 ± 0.1 µM

Compound: CNCC(NC(=O)c1ccc(-c2ccc(C)c(F)c2)[nH]1)c1ncc(CO)s1 (single isomer, unassigned) [Compound 118]
- CC50 at 3 days [2]: 21 ± 0.8 µM
- IC50 [3]: 2 ± 0.3 µM

Compound: NCC(NC(=O)c1ccc(-c2cc(F)c(Cl)c(F)c2)[nH]1)c1ncc(CO)s1 (single isomer, unassigned) [Compound 120]
- CC50 (TZM-bl cells): 31.4 ± 1.1 µM
- IC50 [1, 7]: 1 ± 0.06 µM

Compound: Cc1nc(C(CN)NC(=O)c2ccc(-c3ccc(F)c(F)c3)[nH]2)sc1CO (single isomer, unassigned) [Compound 121]
- percentage in brackets after CC50 >51 (TZM-bl cells; printed "(30%)" without explanation, presumably toxicity at 51 μM): 30%
- CC50 at 3 days [2]: > 51 µM
- IC50 [3, 8]: 3.4 ± 0.7 µM

Compound: CC(C)(N)C(NC(=O)c1ccc(-c2ccc(Cl)c(F)c2)[nH]1)c1ncc(CO)s1 (single isomer, unassigned) [Compound 123]
- CC50 at 3 days [2]: 14.5 ± 2 µM
- IC50 [3, 8]: 0.56 ± 0.03 µM

Compound: Cc1ccc(-c2ccc(C(=O)NC(c3ncc(CO)s3)C(C)(C)N)[nH]2)cc1F (single isomer, unassigned) [Compound 125]
- CC50 at 3 days [2]: 32.5 ± 0.3 µM
- IC50 [3, 8]: 0.63 ± 0.03 µM

Compound: COc1ccc(-c2ccc(C(=O)NC(CN)c3ncc(CO)s3)[nH]2)cc1OC (single isomer, unassigned) [Compound 129]
- CC50 at 3 days [2]: > 74.5 µM
- IC50 [3, 8]: > 74.5 µM

Compound: COc1ccnc2[nH]cc(C(=O)C(=O)N3CCN(C(=O)c4ccccc4)C[C@H]3C)c12 [BMS-378806]
- IC50 [4]: 0.014 µM

Compound: Cc1nc(C(NC(=O)C(=O)Nc2ccc(Cl)cc2)C2CCCCN2)sc1CO (stereo not drawn) [NBD-09027]
- IC50 [5, 9]: 35.8 ± 1.2 µM
- IC50 [5, 10]: 12.7 ± 0.7 µM
- IC50 [5, 11]: 8.6 ± 0.9 µM
- IC50 ([5]; read-out: IC50 (μm), primary isolate 93IN101, subtype C, co-receptor R5): > 87 µM
- IC50 [5, 12]: > 43.5 µM
- IC50 ([5]; read-out: IC50 (μm), primary isolate BCF02, (Group 0), co-receptor R5): ~87 µM
- IC50 [5, 13]: 8.5 ± 0.8 µM
- CC50 (MT-2 cells): > 108 µM
- IC50 [6, 14]: 4.4 ± 1.1 µM
- IC50 [6, 15]: 5.8 ± 0.3 µM
- IC50 ([6]; laboratory strain IIIB, subtype B, MT-2, co-receptor X4): 4.7 ± 0.6 µM
- IC50 [6, 16]: 4 µM
- IC50 [6, 17]: 5.7 ± 0.9 µM
- IC50 [6, 18]: 14.7 ± 2.3 µM
- CC50 (PBMC): > 160 µM

Compound: NBD-556
- IC50 ([5]; read-out: IC50 (μm), laboratory strain 89.6, subtype B, co-receptor R5X4): 4.8 ± 1 µM
- IC50 [5, 9]: ≥ 118 µM
- IC50 [5, 10]: 48.9 ± 7.3 µM
- IC50 [5, 11]: 48 ± 1.65 µM
- IC50 [5, 12]: 57.2 ± 8.7 µM
- IC50 ([5]; read-out: IC50 (μm), primary isolate 93TH060, subtype E, co-receptor R5): > 45 µM
- IC50 [5, 13]: 19.5 ± 2.3 µM
- CC50 (MT-2 cells): > 280 µM
- IC50 [6, 14]: 58 ± 14.3 µM
- IC50 [6, 15]: 11 µM
- IC50 [6, 16]: 15.9 ± 1.6 µM
- IC50 ([6]; laboratory strain RF, subtype B, MT-2, co-receptor R5X4): 18.7 ± 1.3 µM
- IC50 [6, 17]: ≥ 118 µM
- IC50 [6, 18]: > 59 µM
- IC50 (HIV-1 Integrase): > 200 µM
- CC50 (PBMC): > 280 µM
